Experimental data from US12516038B2, “Inhibitors of antigen presentation by HLA-DR” (Janssen Pharmaceutica NV, priority 2020, dated 2026).

Legend:
[1] = tested on: HLA-DR4 restricted mouse T cell hybridoma line (DR4.CII.36.8) with HLA-DRB1*04:01-expressing Boleth cells; assay: HLA-DR4-restricted peptide-specific T cell-based assay (hybridoma assay); conditions: Mus musculus, T-cell, 6 h, inhibition of IL-2 production, CII259-273 peptide presented by Boleth cells
Text: (§1) The screening was made through two sets of HLA-DR/peptide-dependent assays: a peptide-dependent Homogeneous Time Resolved Fluorescence (HTRF) binding assay followed by an HLA-DR dependent, peptide-specific T cell functional assay (HLA-DR4-restricted peptide-specific T cell-based assay hybridoma assay). The HTRF binding assay was designed to measure the ability of the small molecule to inhibit the loading of a fluorescently labeled high-affinity peptide onto HLA-DR peptide binding groove. The peptide-specific T cell functional assay assesses T cell activation resulting from proper peptide presentation onto HLA-DR expressed on the surface of the antigen-presenting cells to the T cell and is used to screen compounds able to inhibit such HLA-DR/peptide-dependent T cell activation.
HLA-DR4-Restricted Peptide-Specific T Cell-Based Assay (Hybridoma Assay)
The hybridoma assay was used to measure compound inhibition of TL-2 production from an HLA-DR4 restricted mouse T cell hybridoma line (DR4.CII.36.8) that was antigen-specific for collagen II259-273 (CII259-273) peptide when presented with an HLA-DR4 expressing Antigen Presenting Cell (APC) cell line (i.e., Boleth).
To the HLA-DRB1*04:01-expressing B cell line (Boleth cell line from International Histocompatibility Working Group (IHWG), ref #IHW09031) was presented the collagen II 259-273 peptide (CII259-273, GIAGFKGEQGPKGEP) to mouse T cell hybridoma (DR4.CII.36.8 T cell hybridoma; clone 36.8, expressing a CII259-273-specific, HLA-DRB1*04:01-restricted T cell receptor). Upon proper CII259-273 peptide presentation, the T cell hybridoma was activated and thus produced IL-2 cytokine, whose level in the cell culture supernatant was detected using mouse IL-2 AlphaLISA kit (Perkin Elmer, Cat: AL511F).
This assay was performed in a 384-well plate (polypropylene V-bottom Greiner bio-one, ref #784075) by: (i) pre-incubation of 20 μL of 1.25 million/mL Boleth cells (25,000 cells) resuspended in DMEM/1% fetal calf serum (FCS; Gibco, ref #16140-071) with 20 μL of 2.5× final concentration of compound of interest in DMEM/1% serum/0.75% DMSO at 37° C. for 1 hr in the incubator, then (ii) 10 μL of 5 million/mL (50,000 cells) DR4.CII.36.8 T cell hybridoma cells resuspended in DMEM/1% FCS was added and incubated for 6 h at 37° C. in the incubator. Supernatant was then collected and mouse IL-2 detected using AlphaLISA kit (ref #AL511F). Compounds were tested in duplicate, with 8-point titration. Mean±SD of AlphaLISA units at each compound concentration was used for compound IC50 calculation. The negative control for this experiment was run without peptide stimulation and used a DMSO vehicle wherein no compound of interest was added. The positive control was run with peptide stimulation and used a DMSO vehicle wherein no compound of interest was added. Both the negative and positive controls were run in 8 replicates each. Curve fitting and IC50 calculation for dose response data was performed by GraphPad software 6 or higher (GraphPad Software, San Diego, CA). Dose response data was plotted versus the log of compound concentration and IC50 was determined using 4-parameter logistic (4-PL) curve fitting.

HLA-DRB1*0401 = HLA-DRB1*0401 (Homo sapiens (Human), UniProt P01903+P01911, A100K/A169T/DEL228-266/F76Y/I96L/K127E/L162R/M171V/N62H/P40V/Q125Y/R42H/S133A/S149N/S66Y/V115G/V209L/W38E); assay: HLA-DR4 HTRF assay; type: binding; conditions: inhibition of loading of Alexa Fluor 647-labeled Cit-CII peptide onto HLA-DR4 (CLIP cleaved)
Text: as §1
The HLA-DR4 HTRF assay is based on HTRF technology and designed to measure ability of compounds to prevent loading of high-affinity Alexa Fluor 647-labeled Citrullinated Collagen 111236-1249 peptide (named Cit-CII/AF647, aa1236-1249, LQYM-Cit-ADQAAGGLR; Alexa Fluor 647 dye commercially available from Invitrogen) onto HLA-DRB1*0401. The HTRF assay technology is based on the energy transfer between two fluorophores, a donor and an acceptor, when in close proximity. The HLA-DR4 protein construct was uniquely designed for this assay and has (i) the α and […] subunits fused to human Fc chains and (ii) the invariant chain-associated peptide (CLIP peptide, aa85-101), the universal moderate/low-affinity HLA-DR binder, attached to the beta chain through a HRV3C protease-cleavable linker.
Because of the low stability of peptide free HLA-DR4 heterodimer, the construct was purified and delivered with CLIP peptide attached to the N-terminal of the β chain. The HLA-DR4 heterodimer was pre-treated with 3 μL HRV3C protease (Novagen E71493-3) (˜2 U/μL) per mg of the cleavable protein to cleave CLIP peptide and incubated overnight (>16 hrs) at 4° C. This method yielded at least 80% cleavage and allowed the CLIP peptide to be potentially exchanged with the fluorescently labeled high affinity cit-CII1236-1249 peptide. A batch of […] protein with CLIP cleaved was prepared for multiple experiments and was stable for several months when stored at 4° C.
In this assay, anti-human Fc antibody labeled with Tb-Cryptate probe was used as the donor (commercially available from Cisbio—PAb Anti-human IgG-Tb Cryptate, Cat #61HFCTAB) and high affinity peptide Citrullinated CII (cit-CII) labeled with Alexa 647 fluorophore was utilized as the acceptor. Inhibitors of the exchange of the pre-cleaved CLIP peptide for the high affinity cit-CII1236-1249 peptide onto HLA-DRB1*04:01 caused a decrease in HTRF signal as measured by the ratio of the 665 nm/620 nm emitted signal. Screening compounds were robotically pre-dispensed (150 nL, Hummingbird, DigiLab/CyBio AG) onto black, round bottom, nontreated, 1536-well assay plates (Corning #3939), were incubated with 3 nM HLA-DR4 (with CLIP cleaved) plus 1 nM Human IgG-Tb (anti-Fc-Tb) Antibody for 45 min prior to addition of 40 nM Cit-CII peptide labeled with Alexa-647. The negative control was DMSO plus 1 nM Human IgG-Tb (anti-Fc-Tb) Antibody, incubated for 45 minutes before addition of 40 nM Cit-CII peptide labeled with Alexa-647. The positive control was DMSO plus 3 nM HLA-DR4 (with CLIP cleaved) plus 1 nM Human IgG-Tb (anti-Fc-Tb) Antibody with 40 nM Cit-CII peptide labeled with Alexa-647 added after a 45-minute incubation. Plates were centrifuged at 1000 rpm for 1 minute and then incubated at 37° C., at 90% relative humidity for 90 minutes. After incubation, plates were read on a spectrophotometer, the Pherastar FS (BMG Labtech), in HTRF mode. The HTRF ratio as well as percent inhibition was calculated. Curve fitting and IC50 calculation for dose response data was performed by Microsoft Excel, 3DX (Janssen proprietary software) or Graphpad Prism (Graphpad Software, San Diego, CA). […]

Cc1c(O[C@@H](c2ccc(C(N)=O)cc2)c2cccc(C#N)c2)c(F)cc2c1OCCC2=O (single isomer, unassigned) [Example 92b, (*S)-4-((3-cyanophenyl)((6-fluoro-8-methyl-4-oxochroman-7-yl)oxy)methyl)benzamide]
IC50 [1]: > 15 µM
IC50 (HLA-DRB1*0401): 0.19 µM

Cc1c(O[C@H](c2ccncc2)c2ccc(S(C)(=O)=O)cc2)c(F)cc2c1OCCC2=O (single isomer, unassigned) [Example 104b, (*S)-6-fluoro-8-methyl-7-((4-(methylsulfonyl)phenyl)(pyridin-4-yl)methoxy)chroman-4-one]
IC50 [1]: 1.1 µM
IC50 (HLA-DRB1*0401): 0.23 µM

Cc1c(O[C@@H](c2ccccc2)c2ccc(C(N)=O)cc2)ccc2c1OCCC2=O (single isomer, unassigned) [Example 69b, (*S)-4-(((8-Methyl-4-oxochroman-7-yl)oxy)(phenyl)methyl)benzamide]
IC50 [1]: > 15 µM
IC50 (HLA-DRB1*0401): 2.1 µM

COc1cc(C(N)=O)ccc1[C@@H](Oc1ccc2c(c1C)OCCC2=O)c1ccncc1 (single isomer, unassigned) [Example 82b, (*S)-3-Methoxy-4-(((8-methyl-4-oxochroman-7-yl)oxy)(pyridin-4-yl)methyl)benzamide]
IC50 [1]: 5.7 µM
IC50 (HLA-DRB1*0401): 0.62 µM

Cc1c(O[C@H](c2ccc(Cl)cc2)c2ccc(C(N)=O)cn2)ccc2c1OCCC2=O (single isomer, unassigned) [Example 63a, (*R)-6-((4-chlorophenyl)((8-methyl-4-oxochroman-7-yl)oxy)methyl)nicotinamide]
IC50 [1]: > 15 µM
IC50 (HLA-DRB1*0401): 1.6 µM

N#Cc1ccc([C@H](Oc2ccc3c(c2)OCCC3=O)c2ccncc2)cc1 (single isomer, unassigned) [Example 10b, (*S)-4-(((4-oxochroman-7-yl)oxy)(pyridin-4-yl)methyl)benzonitrile]
IC50 [1]: > 15 µM
IC50 (HLA-DRB1*0401): 0.91 µM

NC(=O)c1ccc([C@@H](Oc2ccc3c(c2)OCCC3=O)c2ccncc2F)cc1 (single isomer, unassigned) [Example 20a, (*R)-4-((3-fluoropyridin-4-yl)((4-oxochroman-7-yl)oxy)methyl)benzamide]
IC50 [1]: 6.9 µM
IC50 (HLA-DRB1*0401): 1.2 µM

COc1ccc([C@H](Oc2c(F)cc3c(c2C)OCCC3=O)c2ccncc2)cc1 (single isomer, unassigned) [Example 103b, (*S)-6-fluoro-7-((4-methoxyphenyl)(pyridin-4-yl)methoxy)-8-methylchroman-4-one]
IC50 [1]: 15 µM
IC50 (HLA-DRB1*0401): 2.8 µM

NC(=O)c1ccc([C@H](Oc2cc3c(cc2F)C(=O)CCO3)c2ccncc2)cc1 (single isomer, unassigned) [Example 52b, (*S)-4-(((6-Fluoro-4-oxochroman-7-yl)oxy)(pyridin-4-yl)methyl)benzamide]
IC50 [1]: 8.5 µM
IC50 (HLA-DRB1*0401): 0.3 µM

CC(C)c1c(O[C@@H](c2ccc(C(N)=O)cc2)c2cccc(C#N)c2)ccc2c1OCCC2=O (single isomer, unassigned) [Example 107b, (*S)-4-((3-cyanophenyl)((8-isopropyl-4-oxochroman-7-yl)oxy)methyl)benzamide]
IC50 [1]: 2.3 µM
IC50 (HLA-DRB1*0401): 1.1 µM

Cc1c(O[C@@H](c2ccc(C(N)=O)cc2)c2ccnc(CCC(=O)O)c2)ccc2c1OCCC2=O (single isomer, unassigned) [Example 87b]
IC50 [1]: > 15 µM
IC50 (HLA-DRB1*0401): 0.51 µM

C[C@H]1COc2cc(O[C@@H](c3ccncc3)c3ccc(C(N)=O)cc3)ccc2C1=O (single isomer, unassigned) [Example 44c, 4-((*R)—(((*S)-3-Methyl-4-oxochroman-7-yl)oxy)(pyridin-4-yl)methyl)benzamide]
IC50 [1]: > 15 µM
IC50 (HLA-DRB1*0401): 1.3 µM

CC(C)c1c(O[C@@H](c2ccc(C(N)=O)cc2)c2ccc(C(=O)O)cc2)ccc2c1OCCC2=O (single isomer, unassigned) [Example 108b, (*S)-4-((4-carbamoylphenyl)((8-isopropyl-4-oxochroman-7-yl)oxy)methyl)benzoic acid]
IC50 [1]: 2.7 µM
IC50 (HLA-DRB1*0401): 0.82 µM

Cc1cc([C@@H](Oc2ccc3c(c2)OCCC3=O)c2ccc(C(N)=O)cc2)ccn1 (single isomer, unassigned) [Example 15b, (*S)-4-((2-Methylpyridin-4-yl)((4-oxochroman-7-yl)oxy)methyl)benzamide]
IC50 [1]: 8.1 µM
IC50 (HLA-DRB1*0401): 0.77 µM

Cc1c(O[C@@H](c2ccncc2)c2ccc(S(C)(=O)=O)cc2)c(F)cc2c1OCCC2=O (single isomer, unassigned) [Example 104a, (*R)-6-fluoro-8-methyl-7-((4-(methylsulfonyl)phenyl)(pyridin-4-yl)methoxy)chroman-4-one]
IC50 [1]: 3.9 µM
IC50 (HLA-DRB1*0401): 0.29 µM

Cc1c(O[C@@H](c2ccncc2)c2cccc(CNC(N)=O)c2)ccc2c1OCCC2=O (single isomer, unassigned) [Example 81a, (*R)-1-(3-(((8-methyl-4-oxochroman-7-yl)oxy)(pyridin-4-yl)methyl)benzyl)urea]
IC50 [1]: 15 µM
IC50 (HLA-DRB1*0401): 0.69 µM

Cc1c(O[C@@H]2CCc3cnccc32)ccc2c1OCCC2=O (single isomer, unassigned) [Example 124a, (*R)-7-((6,7-dihydro-5H-cyclopenta[c]pyridin-5-yl)oxy)-8-methylchroman-4-one]
IC50 [1]: 14 µM
IC50 (HLA-DRB1*0401): 0.57 µM
